Data from paper PMC6571122 (Journal of medicinal chemistry, 2019).
Values joined by “and” are separate entries in the source; they are usually repeats but may differ in a detail not shown here. Equal entries are not always repeated.

Tests used:
in vitro = settings: human, liver microsomes
[1] = measured LogP octanol/buffer; assay type: physicochemical; settings: pH 11
thermodynamic solubility = assay type: physicochemical
kinetic solubility = assay type: physicochemical; settings: pH 7.4, Solubility (kinetic)
hERG = hERG (Homo sapiens, UniProt Q12809); assay: CEREP 44 safety screen, [3H] Dofetilide binding; settings: probe [3H] Dofetilide
brain to blood ratio = settings: female, CD1, mouse, in vivo, 10 mg/kg
[2] = mouse liver microsome intrinsic clearance; assay type: in vitro ADME; settings: liver microsomes

Chain of hERG (Q12809 whole entry): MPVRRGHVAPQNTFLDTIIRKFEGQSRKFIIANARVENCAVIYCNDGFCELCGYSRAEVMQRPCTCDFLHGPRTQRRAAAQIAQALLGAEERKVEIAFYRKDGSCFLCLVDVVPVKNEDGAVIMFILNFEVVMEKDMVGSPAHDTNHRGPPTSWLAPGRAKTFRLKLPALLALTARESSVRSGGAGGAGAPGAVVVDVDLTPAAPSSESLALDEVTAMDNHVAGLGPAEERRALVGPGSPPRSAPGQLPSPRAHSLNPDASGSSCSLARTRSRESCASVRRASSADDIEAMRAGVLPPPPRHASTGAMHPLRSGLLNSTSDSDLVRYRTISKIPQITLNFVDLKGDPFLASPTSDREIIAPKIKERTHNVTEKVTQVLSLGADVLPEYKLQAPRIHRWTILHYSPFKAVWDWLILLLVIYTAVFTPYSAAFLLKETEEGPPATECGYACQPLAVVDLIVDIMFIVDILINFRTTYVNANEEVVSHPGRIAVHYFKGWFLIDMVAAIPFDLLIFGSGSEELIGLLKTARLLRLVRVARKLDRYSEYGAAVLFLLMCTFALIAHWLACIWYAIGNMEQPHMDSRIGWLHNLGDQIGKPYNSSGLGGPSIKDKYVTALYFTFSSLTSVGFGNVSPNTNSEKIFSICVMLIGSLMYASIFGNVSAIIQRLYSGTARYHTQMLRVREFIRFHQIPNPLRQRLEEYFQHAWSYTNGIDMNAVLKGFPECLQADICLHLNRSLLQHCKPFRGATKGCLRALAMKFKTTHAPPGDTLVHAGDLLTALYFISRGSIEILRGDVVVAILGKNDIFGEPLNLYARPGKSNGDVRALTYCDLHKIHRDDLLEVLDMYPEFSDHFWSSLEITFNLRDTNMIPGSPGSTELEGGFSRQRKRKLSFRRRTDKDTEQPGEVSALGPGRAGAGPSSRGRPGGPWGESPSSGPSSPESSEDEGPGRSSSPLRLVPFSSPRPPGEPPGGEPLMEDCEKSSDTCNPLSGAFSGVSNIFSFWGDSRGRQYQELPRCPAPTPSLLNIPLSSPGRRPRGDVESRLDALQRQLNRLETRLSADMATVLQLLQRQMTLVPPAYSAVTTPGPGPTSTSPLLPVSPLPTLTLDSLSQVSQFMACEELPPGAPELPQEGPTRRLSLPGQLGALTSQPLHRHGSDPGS

SMILES | CLint scaled (in vitro) [mL/min/kg] | CLint scaled at 1 h, 10 µM (in vitro) [mL/min/kg] | also measured
CCc1nc(N)nc(N)c1-c1ccc(Cl)cc1 [Compound 1, Pyrimethamine, reference compound] | < 8.6 |  | logP [1]: 2.71
COc1ncc(-c2cccc(N3CCN(c4cnc(N)nc4N)CC3)c2)cn1 [Compound 3, 5-(4-(3-(2-Methoxypyrimidin-5-yl)phenyl)piperazin-1-yl)pyrimidine-2,4-diamine] | < 8.6 |  | inhibition at 10 µM (hERG): 60%; Kp at 0.5 h (brain to blood ratio): 1.7 ± 0.6; concentration at 0.5 h (brain to blood ratio): 2560 ng/g and 1610 ng/mL; CLint scaled at 1 h, 10 µM [2]: 56.3 mL/min/kg
Nc1ncc(N2CCN(c3cccc(-c4ncccn4)c3)CC2)c(N)n1 [Compound 25, 5-(4-(3-(Pyrimidin-2-yl)phenyl)piperazin-1-yl)pyrimidine-2,4-diamine] | < 8.6 |  | 
Cc1ncc(-c2cccc(N3CCN(c4cnc(N)nc4N)CC3)c2)cn1 [Compound 29, 5-(4-(3-(2-methylpyrimidin-5-yl)phenyl)piperazin-1-yl)pyrimidine-2,4-diamine] | < 8.6 |  | CLint scaled at 1 h, 10 µM [2]: 431 mL/min/kg
Nc1ncc(N2CCN(c3cccc(-c4cnc(C(F)(F)F)nc4)c3)CC2)c(N)n1 [Compound 30, 5-(4-(3-(2-(Trifluoromethyl)pyrimidin-5-yl)phenyl)piperazin-1-yl)pyrimidine-2,4-diamine] |  | 10.5 | 
Nc1ncc(N2CCN(c3cccc(-c4cnc(C5CC5)nc4)c3)CC2)c(N)n1 [Compound 31, 5-(4-(3-(2-Cyclopropylpyrimidin-5-yl)phenyl)piperazin-1-yl)pyrimidine-2,4-diamine] |  | 17.4 | 

Now from value to compound, other results behind:

CLint scaled (in vitro) [mL/min/kg] | CLint scaled at 1 h, 10 µM (in vitro) [mL/min/kg] | SMILES | also measured
 | 28.4 | Nc1ncc(N2CCN(c3cccc(-c4ccccc4)c3)CC2)c(N)n1 [Compound 2] | solubility thermodynamic (thermodynamic solubility): < 4 µM; solubility kinetic (kinetic solubility): < 4 µM; logP [1]: 3.38
 | 17.7 | Nc1ncc(N2CCN(c3cccc(-c4ccccn4)c3)CC2)c(N)n1 [Compound 22, 5-(4-(3-(pyridin-2-yl)phenyl)piperazin-1-yl)pyrimidine-2,4-diamine] | 
 | 18.7 | Nc1ncc(N2CCN(c3cccc(-c4ccncc4)c3)CC2)c(N)n1 [Compound 24, 5-(4-(3-(Pyridin-4-yl)phenyl)piperazin-1-yl)pyrimidine-2,4-diamine] | 
< 8.6 |  | Nc1ncc(N2CCN(c3cccc(-c4cncnc4)c3)CC2)c(N)n1 [Compound 26, 5-(4-(3-(Pyrimidin-5-yl)phenyl)piperazin-1-yl)pyrimidine-2,4-diamine] | CLint scaled at 1 h, 10 µM [2]: 2700 mL/min/kg
< 8.6 |  | Nc1ncc(N2CCN(c3cccc(-c4cnccn4)c3)CC2)c(N)n1 [Compound 27, 5-(4-(3-(Pyrazin-2-yl)phenyl)piperazin-1-yl)pyrimidine-2,4-diamine] | 
< 8.6 |  | Nc1ncc(N2CCN(c3cccc(-c4ccnnc4)c3)CC2)c(N)n1 [Compound 28, 5-(4-(3-(Pyridazin-4-yl)phenyl)piperazin-1-yl)pyrimidine-2,4-diamine] | 
